# US20230150951A1, “2,5- OR 2,6-DISUBSTITUTED HYDROQUINONE DERIVATIVES WITH AT LEAST ONE CARBOXY, SULFO OR AMIDO GROUP USEFUL AS MEDICAMENTS” (OM PHARMA SA, priority 2020, published 2023)
# Legend:
# [1] = test system: ARPE-19 cells; test: ROS and cytokine/VEGF mRNA production by ARPE-19 monolayer cells in non-diabetic and diabetic milieu; type: cell-based, human; settings: ARPE19 monolayer; for ROS: ROS % to 25 mM D-Glucose; for IL-1β R.Q. mRNA / IL-6 R.Q. mRNA / IL-18 R.Q. mRNA / TNFα R.Q. mRNA / VEGF R.Q. mRNA: relative change vs 25 mM D-Gluc
# Method: Outer Blood Retinal Barrier conditions: human retinal pigment epithelial cells (RPE) cultures ARPE-19, a spontaneously immortalised human RPE cell line were obtained from American Type Culture Collection (Manassas, Va., USA). ARPE-19 cells and they were cultured in euglycaemic conditions (D-glucose (D-Glc), 5.5 mmol/L) and hyperglycaemic conditions (D-glucose, 25 mmol/L) for 18 days at 37° C. under 5% (vol./vol.) CO2 in medium (DMEM/F12) supplemented with 10% (vol./vol.) FBS (Hyclone; Thermo Fisher Scientific, UT, USA) and 1% (vol./vol.) penicillin/streptomycin (Hyclone; Thermo Fisher Scientific). ARPE-19 cells from passage 20 were used and the medium changed every 3-4 days. For permeability studies, ARPE-19 cells were seeded at 400,000 cells/ml (80,000 RPE cells/well) in 0.33 cm^2 HTS-Transwells (Costar; Corning, N.Y., USA). For real-time PCR, western blot analysis and immunofluorescence cells are seeded at 20,000 cells/ml.
# Experimental conditions and treatments: apart from the euglycemic condition, eighteen different conditions were tested in cells cultured under 25 mmol/L D-glucose:
# • Proinflammatory cytokines were evaluated in ARPE-19 cells by RT-PCR and mRNA for IL-6, TNF-α, IL-1β, IL-18, VEGF, IL-10, FGF were measured using the double delta CT method 2-ΔΔCT with Cts values for the gene of interest and the endogenous human B-actin to obtain ΔCT; mRNA values were expressed as relative change with respect to the condition 25 mM D-Gluc. (ref: Livak K J, Analysis of Relative Gene Expression Data Using Real-Time Quantitative PCR and the 2-ΔΔCT Method, Methods, 2001, 25(4), 402-408, doi 10.1006/meth.2001.1262) • ROS production was evaluated using Cell Biolabs' OxiSelect™ Intracellular ROS Assay (Green Fluorescence) (Bionova, Madrid, Spain). The assay employs the cell-permeable fluorogenic probe 2′, 7′-Dichlorodihydrofluorescin diacetate (DCFH-DA), oxidized to highly fluorescent 2′, 7′-Dichlorodihydrofluorescein (DCF) by cellular ROS. • Endothelin-1, PDGF and VCAM-1 expression was analyzed in HREC monolayers by immunohistochemical analysis and by RT-PCR. • TJ expression (ZO) is analyzed in ARPE-19 and HREC monolayers by immunohistochemical analysis.
# [2] = test system: human primary cells; test: BioMap Plus phenotypic profiling in human primary cell-based systems; settings: 30, 10, 3.3, 1.1 μM
# Method: A series of in vitro assays was performed using human primary cell-based assays modeling complex tissue and disease biology of organs (vasculature, immune system, skin, lung) and general tissue biology for phenotypic profiling of compounds in conditions that preserve crosstalk and feedback mechanisms relevant to in vivo outcomes.
# [3] = test system: STZ-induced diabetes model; test: STZ-induced diabetes and diabetic wound healing model; type: in vivo, CD-1 mice; settings: IV; vs induced vehicle controls
# Method: Diabetes murine models using streptozotocin (STZ-induced diabetes) were used to assess efficacy of compounds of the present invention for a diabetic wound healing and generate tissue samples to allow post in-life analysis of skin tissue.
# These were purchased from Charles River and acclimated for 7 days upon arrival.
# Aseptic technique and dosing: Although animals to be used in this study are immuno-competent, preparation of dosing solutions and dosing/weighing of animals were carried out in a sterile biosafety cabinet. IV dosing: Compounds were formulated in 5% DMSO: 10% Solutol: 10% PEG400: 75% PBS and pH adjusted to 7 with 0.5M NaOH solution. PO dosing: formulation is in water.
# Animals were anaethetised and a full thickness 6 mm wound created using a sterilized biopsy punch. Wounds were imaged (Days 0). Animals were treated and imaged every 2 days out to day 14 (when control, non-diabetic mouse wounds were healed). Wound images were digitally assessed for area of wound and percentage closure versus time plotted graphically.
# Treatment will continue for 2 weeks (14 days). Animal numbers in brackets are dosed for 7 days, then sampled for mid-study PD analysis.
# Mid Study sampling: Following 7 days dosing 3 animals per group were killed and wound tissue removed and divided into 2 sections (A) and (B):
# (A) First section is FFPE and stained with the following: H&E, Masson's Trichrome, CD31, TGF-β.
# (B) Second section are homogenised and used for the following ELISAs: SOD, GTPx, Catalase, TNF-α, IL-6, TGF-β levels.
# [4] = test system: DBA/2 mouse strain with STZ induction of diabetes; test: STZ-induced diabetic retinopathy and nephropathy model in DBA/2 mice; type: in vivo; settings: one and two weeks, FIG. 9
# Method: Therapeutic efficacy of the compounds according to the present invention was assessed using diabetic mouse model using the DBA/2 mouse strain with STZ induction of diabetes and follow diabetic retinopathy including kidney damage. Five weeks after induction of diabetes via low dose STZ injection for 5 consecutive days, the urinary albumin:Cr ratio is […] compared to 36.9 for age-matched controls.
# For treatment of diabetic nephropathy, DBA/2 mice were induced with STZ (low dose for 5 consecutive days).
# Treatment was performed for four weeks (IV dosing) with weekly assessment of blood glucose and urine albumin/creatinine levels. At the end of the treatment period animals, the following samples were taken: • Blood for measurement of glucose and Blood Urea Nitrogen (BUN) • Blood for measurement of serum creatinine • Urine for final albumin/creatinine ratio. • Kidney was resected and FFPE: Picro-Sirius Red, Masson's Trichrome and H&E staining was carried out to identify areas of fibrosis, along with evidence of Mesangial sclerosis, Arteriolar hyalinosis, Glomerular Basal Membrane (GBM) thickening
# To assess compound effect on diabetic retinopathy, animals had weekly images taken via Fundus Camera. Immediately prior to sacrifice, animals were injected with FITC-dextran via tail vein. During sampling, the eyes were sampled and fixed in formalin. Retinal Flatmounts were prepared and examined fluorescently looking at compound effects on vascularity and leakiness of vessels (indicted by high background staining).
# [5] = 25 mM D-Gluc, compound 25 μg/mL
# [6] = 25 mM D-Gluc, compound 50 μg/mL
# [7] = diabetic milieu (25 mM D-Gluc + VEGF, TNF-α, IL-1β), compound 25 μg/mL
# [8] = diabetic milieu (25 mM D-Gluc + VEGF, TNF-α, IL-1β), compound 50 μg/mL
SMILES,"ROS [1, 5]","IL-1β R.Q. mRNA [1, 5]","IL-6 R.Q. mRNA [1, 5]","IL-18 R.Q. mRNA [1, 5]","TNFα R.Q. mRNA [1, 5]","VEGF R.Q. mRNA [1, 5]","ROS [1, 6]","IL-1β R.Q. mRNA [1, 6]","IL-6 R.Q. mRNA [1, 6]","IL-18 R.Q. mRNA [1, 6]","TNFα R.Q. mRNA [1, 6]","VEGF R.Q. mRNA [1, 6]","ROS [1, 7]","IL-1β R.Q. mRNA [1, 7]",Antiproliferative effects on human primary cells [2],Cytotoxicity in BioMap Plus [2],Immunomodulatory activities [2],Inflammation-related activities [2],Number of annotated readouts [2],Tissue remodeling activities [2],also measured
"O=C(O)c1cc(NC(=O)c2cc(O)c(C(=O)Nc3ccc(O)c(C(=O)O)c3)cc2O)ccc1O [Ic-007a, 5-(4-(3-carboxy-4-hydroxyphenylaminocarbonyl)-2,5-dihydroxybenzamido)-2-hydroxy benzoic acid]",32 ± 15%,0.12 ± 0.01 R.Q.,0.52 ± 0.49 R.Q.,0.45 ± 0.18 R.Q.,0.27 ± 0.07 R.Q.,0.09 ± 0.02 R.Q.,26 ± 4.6%,0.15 ± 0.03 R.Q.,0.20 ± 0.07 R.Q.,0.07 ± 0.01 R.Q.,0.59 ± 0.33 R.Q.,0.12 ± 0.03 R.Q.,33 ± 4.8 %,12.21 ± 1.46 R.Q.,"antiproliferative to human primary T cells (30 μM) and fibroblasts (30 μM, 10 μM, 3.3 μM, 1.1 μM)",not cytotoxic,"decreased CD40, M-CSF","decreased VCAM-1, sTNFα, MIP-1α, I-TAC, MIG; increased IL-8; modulated IP-10",20,"decreased Collagen I, Collagen IV, TIMP-1, tPA, Collagen III, PAI-1, uPAR, bFGF","IL-6 R.Q. mRNA [1, 7]: 0.52 ± 0.49 R.Q.; IL-18 R.Q. mRNA [1, 7]: 0.02 ± 0.00 R.Q.; TNFα R.Q. mRNA [1, 7]: 11.26 ± 0.96 R.Q.; VEGF R.Q. mRNA [1, 7]: 0.06 ± 0.02 R.Q.; ROS [1, 8]: 27 ± 13 %; IL-1β R.Q. mRNA [1, 8]: 10.66 ± 3.01 R.Q.; IL-6 R.Q. mRNA [1, 8]: 3.28 ± 1.46 R.Q.; IL-18 R.Q. mRNA [1, 8]: 0.02 ± 0.00 R.Q.; TNFα R.Q. mRNA [1, 8]: 5.22 ± 3.96 R.Q.; VEGF R.Q. mRNA [1, 8]: 0.17 ± 0.05 R.Q."
"O=C(O)c1cc(O)c(C(=O)Nc2ccccc2C(=O)O)cc1O [Ia-001a, 4-(2-carboxyphenylaminocarbonyl)-2,5-dihydroxybenzoic acid]",–,–,–,–,–,–,–,–,–,–,–,–,–,–,–,–,–,–,–,–,Blood glucose levels [3]: significant reduction; Blood glucose level [4]: significantly reduced
"O=C(O)c1cc(NC(=O)c2cc(O)cc(C(=O)Nc3ccc(O)c(C(=O)O)c3)c2O)ccc1O [IIc-007a, 5-(3-(3-carboxy-4-hydroxyphenylaminocarbonyl)-2,5-dihydroxybenzamido)-2-hydroxy benzoic acid]",55 ± 6.4%,0.74 ± 0.26 R.Q.,0.73 ± 0.00 R.Q.,0.75 ± 0.09 R.Q.,0.57 ± 0.18 R.Q.,0.06 ± 0.01 R.Q.,72 ± 11%,0.24 ± 0.11 R.Q.,0.34 ± 0.08 R.Q.,0.04 ± 0.00 R.Q.,0.45 ± 0.30 R.Q.,0.12 ± 0.03 R.Q.,47 ± 7.6 %,41.03 ± 17.57 R.Q.,did not have any antiproliferative effects,not cytotoxic,"decreased sIL-10, sIL-2","decreased sTNFα, MIP-1α; increased IL-8; modulated MCP-1",12,"decreased Collagen I, Collagen IV, Collagen III, PAI-1","IL-6 R.Q. mRNA [1, 7]: 10.83 ± 6.90 R.Q.; IL-18 R.Q. mRNA [1, 7]: 0.07 ± 0.01 R.Q.; TNFα R.Q. mRNA [1, 7]: 6.31 ± 0.06 R.Q.; VEGF R.Q. mRNA [1, 7]: 0.11 ± 0.01 R.Q.; ROS [1, 8]: 74 ± 38 %; IL-1β R.Q. mRNA [1, 8]: 11.39 ± 6.52 R.Q.; IL-6 R.Q. mRNA [1, 8]: 1.50 ± 1.19 R.Q.; IL-18 R.Q. mRNA [1, 8]: 0.03 ± 0.00 R.Q.; TNFα R.Q. mRNA [1, 8]: 4.24 ± 0.77 R.Q.; VEGF R.Q. mRNA [1, 8]: 0.13 ± 0.02 R.Q."
"O=C(O)c1cc(O)c(CN(Cc2cc(O)c(C(=O)O)cc2O)Cc2cc(O)c(C(=O)O)cc2O)cc1O [IIIc-061a, Tris(4-carboxy-2,5-dihydroxyphenylmethyl)amine]",–,–,–,–,–,–,–,–,–,–,–,–,–,–,did not have any antiproliferative effects,not cytotoxic,decreased sIL-17A,"decreased I-TAC, MIG",six,"decreased Collagen I, Collagen III, PAI-1",Blood glucose levels [3]: significant reduction; Blood glucose level [4]: significantly reduced
